PMC4109836, “Analysis of the co-operative interaction between the allosterically regulated proteins GK and GKRP using tryptophan fluorescence” (Biochemical Journal, 2014)
Where a chain is given by its changes, count along the chain named. Names may count otherwise. Where two headings read alike, the source gives them in different places. Each block holds one molecule with its values, some of them ahead of it.

Key:
[1] = target: T1, GK-W99R/W167F/W257F (Homo sapiens, UniProt P35557, W167F/W257F/W99R); set-up: method as in ref 4 (a number printed in a supplementary file, which may have a reference list of its own: not looked up in the article's list); details: read-out: ATP Km; cited from earlier work
T1 construct: GST (cleaved yes); made in house; host or cells: Escherichia coli
T1 sequence (P35557 1-465 W99R/W167F/W257F): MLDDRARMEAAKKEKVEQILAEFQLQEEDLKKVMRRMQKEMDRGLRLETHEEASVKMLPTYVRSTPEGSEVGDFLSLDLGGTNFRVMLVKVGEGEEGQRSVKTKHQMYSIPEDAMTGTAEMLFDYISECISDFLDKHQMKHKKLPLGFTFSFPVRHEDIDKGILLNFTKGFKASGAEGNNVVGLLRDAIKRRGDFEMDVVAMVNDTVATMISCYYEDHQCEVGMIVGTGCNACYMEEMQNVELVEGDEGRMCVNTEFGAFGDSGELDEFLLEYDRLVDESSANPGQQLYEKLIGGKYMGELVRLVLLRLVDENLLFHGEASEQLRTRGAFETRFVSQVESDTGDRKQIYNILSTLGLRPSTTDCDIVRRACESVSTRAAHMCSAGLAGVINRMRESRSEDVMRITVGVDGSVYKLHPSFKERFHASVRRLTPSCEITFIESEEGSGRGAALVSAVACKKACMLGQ

[2] = target: T2, GK-WT (Homo sapiens, UniProt P35557); set-up: method as in ref 4 (a number printed in a supplementary file, which may have a reference list of its own: not looked up in the article's list); details: read-out: ATP Km; cited from earlier work
T2 construct: GST (cleaved yes); made in house; host or cells: Escherichia coli
T2 sequence (P35557 1-465): T1 sequence (P35557 1-465 W99R/W167F/W257F) with R99W, F167W, F257W

[3] = target: T3, hGKRP (0.3 μM)–GK-W99R/W167F/W257F (1 μM) complex, GKRP-WT (Homo sapiens, UniProt P35557+Q14397, W167F/W257F/W99R); assay: Ligand binding by / disassembly of GKRP-WT–GK-W99R/W167F/W257F complex by TF of hGKRP; details: ligand titration of 3:1 GK–GKRP-WT complex, 20°C
T3 construct: FLAG; GST (cleaved yes); made in house; host or cells: Escherichia coli
T3 sequence (Q14397 1-625): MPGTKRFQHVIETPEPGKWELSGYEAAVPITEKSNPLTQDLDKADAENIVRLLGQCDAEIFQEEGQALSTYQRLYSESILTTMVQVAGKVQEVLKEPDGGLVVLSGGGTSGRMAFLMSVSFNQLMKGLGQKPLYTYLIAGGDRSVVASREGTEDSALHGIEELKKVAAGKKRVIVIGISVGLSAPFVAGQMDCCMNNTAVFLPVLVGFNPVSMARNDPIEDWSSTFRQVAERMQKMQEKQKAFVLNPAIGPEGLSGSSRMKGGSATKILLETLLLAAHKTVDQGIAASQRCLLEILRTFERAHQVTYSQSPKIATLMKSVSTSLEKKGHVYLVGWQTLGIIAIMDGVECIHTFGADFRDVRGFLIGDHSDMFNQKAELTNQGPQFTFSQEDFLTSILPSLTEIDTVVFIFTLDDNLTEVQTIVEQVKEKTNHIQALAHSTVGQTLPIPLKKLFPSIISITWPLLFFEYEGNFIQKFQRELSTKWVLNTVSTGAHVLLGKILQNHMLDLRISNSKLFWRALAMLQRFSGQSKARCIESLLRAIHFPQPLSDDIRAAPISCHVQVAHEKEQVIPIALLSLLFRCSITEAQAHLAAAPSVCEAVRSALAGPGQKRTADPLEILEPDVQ
T3 sequence (P35557 1-465 W99R/W167F/W257F): T1 sequence (P35557 1-465 W99R/W167F/W257F)
Description: (§1) Spectra were measured with a Fluorolog-3-21 Jobin-Yvon Spex Instrument SA equipped with a 450 W Xenon lamp for excitation and a cooled R2658P Hamamatsu photomultiplier tube for detection. For all measurements, 90° geometry was employed and 295 nm excitation wavelengths were used to observe fluorescence emission in the 300–500 nm range. For TF, spectra slit width was set to provide a bandpath of 3 nm for excitation and 3 nm for emission. Spectra were corrected for instrumental response using Spex instrument software. A thermostatically controlled cell holder maintained sample temperature at 20°C. A thermocoupler was used to measure sample temperature. The buffer used contained 20 mM phosphate, 50 mM KCl, 1 mM EDTA and 1 mM DTT (pH 7.2).
(§2) Fluorescence data were obtained via the stepwise addition of the appropriate amount of non-fluorescent GK-W99R/W167F/W257F to GKRP in a fluorescence cuvette. […] The change in GKRP protein fluorescence during titration was also measured using time-dependent scans. A manual procedure was used such that a typical titration with 10–12 additions required 20–25 min to perform. The same buffer as described above was routinely used unless stated otherwise. The bandpath was 0.5 nm at 295 nm for excitation and 12 nm at 340 nm for emission. […] For some graphical presentations the linear form of the Hill equation was used: log[F/(Fsat−F)]=H log x−H log KD [46].

[4] = target: T4, hGKRP (0.3 μM)–GK-W99R/W167F/W257F (1 μM) complex, GKRP-P446L (Homo sapiens, UniProt P35557+Q14397, P446L/W167F/W257F/W99R); assay: Ligand binding by / disassembly of GKRP-P446L–GK-W99R/W167F/W257F complex by TF of hGKRP; details: ligand titration of 3:1 GK–GKRP-P446L complex, 20°C
T4 construct: FLAG; GST (cleaved yes); made in house; host or cells: Escherichia coli
T4 sequence (Q14397 1-625 P446L): T3 sequence (Q14397 1-625) with P446L
T4 sequence (P35557 1-465 W99R/W167F/W257F): T1 sequence (P35557 1-465 W99R/W167F/W257F)
Description: as §1, §2

[5] = target: T5, GKRP-P446L (Homo sapiens, UniProt Q14397, P446L); assay: Ligand binding to free GKRP-P446L measured by TF of GKRP; details: ligand alone; for H (Hill number) / ΔF (relative fluorescence change at 340 nm) / Kd: 0.3 μM GKRP-P446L, 20°C; for Kd: read-out: S0.5
T5 construct: FLAG; made in house; host or cells: Escherichia coli
T5 sequence (Q14397 1-625 P446L): T3 sequence (Q14397 1-625) with P446L

[6] = target: T6, GKRP-WT (Homo sapiens, UniProt Q14397); assay: Ligand binding to free GKRP-WT measured by TF of GKRP; details: ligand alone; for H (Hill number) / ΔF (relative fluorescence change at 340 nm) / Kd: 0.3 μM GKRP-WT, 20°C; for Kd: read-out: S0.5
T6 construct: FLAG; made in house; host or cells: Escherichia coli
T6 sequence (Q14397 1-625): T3 sequence (Q14397 1-625)

[7] = target: T7, GKRP-P446L (Homo sapiens, UniProt P35557+Q14397, P446L/W167F/W257F/W99R); assay: Titration of GKRP-P446L with GK-W99R/W167F/W257F (GK–GKRP complex assembly) by TF; format: binding; details: saturating levels of F6P
T7 construct: FLAG; GST (cleaved yes); made in house; host or cells: Escherichia coli
T7 sequence (Q14397 1-625 P446L): T3 sequence (Q14397 1-625) with P446L
T7 sequence (P35557 1-465 W99R/W167F/W257F): T1 sequence (P35557 1-465 W99R/W167F/W257F)
Description: as §1, §2

[8] = target: T8, GKRP-WT (Homo sapiens, UniProt P35557+Q14397, W167F/W257F/W99R); assay: Titration of GKRP-WT with GK-W99R/W167F/W257F (GK–GKRP complex assembly) by TF; format: binding; details: saturating levels of F6P;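 also: tryptophan fluorescence of GKRP titrated with GK, excitation 295 nm, emission read at 340 nm, phosphate buffer pH 7.2, Hill equation fitting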
T8 construct: FLAG; GST (cleaved yes); made in house; host or cells: Escherichia coli
T8 sequence (Q14397 1-625): T3 sequence (Q14397 1-625)
T8 sequence (P35557 1-465 W99R/W167F/W257F): T1 sequence (P35557 1-465 W99R/W167F/W257F)

[9] = target: T2, GK-WT; set-up: method as in ref 18 (a number printed in a supplementary file, which may have a reference list of its own: not looked up in the article's list); details: read-out: Kd for MH, cited from earlier work
[10] = test system: subjects with T2D; set-up: method as in PMID 21994424; details: cited from earlier work
[11] = Structural stability from urea denaturation curves (TF); format: physicochemical, human; details: buffer pH 7.2, 20°C; ±0.05

Molecule: Nc1ncnc2c1ncn2[C@@H]1O[C@H](COP(=O)(O)OP(=O)(O)OP(=O)(O)O)[C@@H](O)[C@H]1O [ATP]
Km [1]: 1960 µM | Km [2]: 490 µM

H [3]: 1 | ΔF (relative fluorescence change at 340 nm) [3]: −0.086 | Kd ([3]; read-out: Kd (apparent)): 127 µM | H [4]: 1 | ΔF (relative fluorescence change at 340 nm) ([4]; glucose curve biphasic (two phases)): −0.095 | Kd ([4]; read-out: Kd (apparent)): 298 µM | H (Hill number) [5]: 1 | ΔF (relative fluorescence change at 340 nm) [5]: −0.08 | Kd [5]: 139 µM | effect on the TF signal of GKRP-P446L [5]: decrease | H (Hill number) [6]: 1 | ΔF (relative fluorescence change at 340 nm) [6]: −0.04 | Kd [6]: 65 µM | effect on the TF signal of GKRP-WT [6]: decrease
Molecule: O=C(COP(=O)([O-])[O-])[C@@H](O)[C@H](O)[C@H](O)CO.[Na+].[Na+] [F1P, D-fructose 1-phosphate sodium salt]

effect on the binding of GKRP-WT to GK [8]: no significant effect | H (Hill number) [5]: 2.94 | ΔF (relative fluorescence change at 340 nm) [5]: 0.07 | Kd [5]: 242 µM | effect on the TF signal of GKRP-P446L [5]: increase | H (Hill number) [6]: 3.6 | ΔF (relative fluorescence change at 340 nm) [6]: 0.04 | Kd [6]: 278 µM | effect on the TF signal of GKRP-WT [6]: increase
Molecule: O=C(CO)[C@@H](O)[C@H](O)[C@H](O)COP(=O)([O-])[O-].[Na+].[Na+] [F6P, D-fructose 6-phosphate disodium salt]
effect on the binding of GKRP-P446L to GK [7]: increased the affinity of GKRP-P446L for GK

Molecule: O=C(CO)[C@@H](O)[C@@H](O)[C@H](O)[C@H](O)CO [MH, D-mannoheptulose]
Kd ([9]; in the presence of GKA (20 μM)): 1000 µM | Kd ([9]; without GKA): 17000 µM

Molecule: CCS(=O)(=O)c1ccc(Oc2cc(O[C@@H](C)CO)cc(C(=O)Nc3ccn(C)n3)c2)cn1 [MK0941]
clinical effect, higher doses ([10]; higher doses of the drug): fast-onset transient effects associated with an increase in blood lipids and cardiovascular side effects | clinical effect, low dose ([10]; low dose of the drug): slow-onset long-lasting beneficial effect

B1: GKRP-WT: recombinant human wild-type GK regulatory protein (protein)
chain: T3 sequence (Q14397 1-625)
modifications: left off: FLAG, end not stated, state not stated
notes: recombinant human wild-type GK regulatory protein
ΔG(H2O) from urea denaturation curves [11]: 6.53 kJ/mol

B2: GKRP-P446L: recombinant human GKRP variant P446L (protein)
chain: T3 sequence (Q14397 1-625) with P446L
modifications: left off: FLAG, end not stated, state not stated
ΔG(H2O) from urea denaturation curves [11]: 6.49 kJ/mol
